Source: patent US10479780B2, “Aminopyrazole derivatives” (Chugai Seiyaku Kabushiki Kaisha, priority 2015, dated 2019)
Read-outs that look alike come from different tables or passages of the source.

Experiments:
Format in all cases: biochemical
human Yes1 enzyme = molecular target: T1, human Yes1 enzyme (Homo sapiens, UniProt P07947); experiment: Yes1 enzyme inhibitory activity (time-resolved fluorometry, biotinylated peptide phosphorylation); details: read-out: YES_IC50
T1 construct: made in house
T1 sequence (P07947 whole entry): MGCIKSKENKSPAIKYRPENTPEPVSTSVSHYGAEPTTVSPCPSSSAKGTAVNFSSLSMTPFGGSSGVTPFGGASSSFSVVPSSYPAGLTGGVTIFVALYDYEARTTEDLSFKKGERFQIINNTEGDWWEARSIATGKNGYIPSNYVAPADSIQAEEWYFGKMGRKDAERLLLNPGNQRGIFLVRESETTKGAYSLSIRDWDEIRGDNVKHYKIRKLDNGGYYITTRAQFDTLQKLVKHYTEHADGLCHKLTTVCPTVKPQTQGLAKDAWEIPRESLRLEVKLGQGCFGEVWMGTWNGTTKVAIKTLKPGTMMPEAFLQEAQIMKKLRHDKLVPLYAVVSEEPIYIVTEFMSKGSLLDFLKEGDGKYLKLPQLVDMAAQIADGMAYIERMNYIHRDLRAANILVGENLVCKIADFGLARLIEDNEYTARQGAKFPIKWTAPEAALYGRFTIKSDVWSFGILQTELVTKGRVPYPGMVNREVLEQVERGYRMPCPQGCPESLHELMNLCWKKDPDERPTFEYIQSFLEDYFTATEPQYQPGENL
Outline: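 Inhibition was expressed against a compound-free control to give IC50, using TR-FRET read-out (Eu-cryptate anti-pTyr antibody, streptavidin-XL665).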

human Lck enzyme = molecular target: T2, human Lck enzyme (Homo sapiens, UniProt P06239); experiment: Lck enzyme inhibitory activity (time-resolved fluorometry, biotinylated peptide phosphorylation); details: read-out: LCK_IC50
T2 construct: purchased Carna Biosciences, Inc. 08-170
T2 sequence (P06239 whole entry): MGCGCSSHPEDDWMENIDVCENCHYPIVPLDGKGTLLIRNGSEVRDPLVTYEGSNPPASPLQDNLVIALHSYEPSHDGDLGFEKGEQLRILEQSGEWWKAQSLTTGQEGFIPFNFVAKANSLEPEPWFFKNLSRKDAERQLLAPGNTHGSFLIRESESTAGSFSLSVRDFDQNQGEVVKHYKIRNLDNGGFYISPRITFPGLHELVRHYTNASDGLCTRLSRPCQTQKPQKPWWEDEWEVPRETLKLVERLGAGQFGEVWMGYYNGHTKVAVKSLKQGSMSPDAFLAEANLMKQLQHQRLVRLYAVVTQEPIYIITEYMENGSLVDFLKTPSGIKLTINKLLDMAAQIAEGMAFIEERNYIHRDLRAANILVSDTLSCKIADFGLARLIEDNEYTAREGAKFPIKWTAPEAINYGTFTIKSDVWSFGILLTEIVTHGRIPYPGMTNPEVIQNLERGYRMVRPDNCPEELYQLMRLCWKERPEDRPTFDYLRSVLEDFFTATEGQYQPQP
Outline: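 Readout pairs a europium cryptate-labelled anti-phosphotyrosine antibody with XL665-streptavidin, measured by time-resolved fluorescence. IC50 derived from percent inhibition against untreated controls.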

human Src enzyme = molecular target: T3, human Src enzyme (Homo sapiens, UniProt P12931); experiment: Src enzyme inhibitory activity (time-resolved fluorometry, biotinylated peptide phosphorylation); details: read-out: SRC_IC50
T3 construct: purchased Carna Biosciences, Inc. 08-173
T3 sequence (P12931 whole entry): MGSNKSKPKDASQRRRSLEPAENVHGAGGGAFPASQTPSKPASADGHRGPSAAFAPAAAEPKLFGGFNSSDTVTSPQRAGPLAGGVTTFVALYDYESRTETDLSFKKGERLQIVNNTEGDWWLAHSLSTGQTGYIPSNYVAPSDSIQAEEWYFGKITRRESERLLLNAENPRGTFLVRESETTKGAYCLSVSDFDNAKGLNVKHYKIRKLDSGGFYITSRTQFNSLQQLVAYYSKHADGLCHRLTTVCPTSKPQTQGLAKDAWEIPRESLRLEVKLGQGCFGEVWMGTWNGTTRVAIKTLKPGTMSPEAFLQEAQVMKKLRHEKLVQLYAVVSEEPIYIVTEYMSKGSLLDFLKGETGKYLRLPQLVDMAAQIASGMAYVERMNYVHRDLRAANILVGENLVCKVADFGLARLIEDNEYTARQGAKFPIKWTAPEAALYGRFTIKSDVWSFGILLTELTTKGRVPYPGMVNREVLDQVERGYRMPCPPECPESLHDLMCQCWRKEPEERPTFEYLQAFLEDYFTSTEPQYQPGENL
Outline: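 Compounds were tested for blocking tyrosine phosphorylation of a biotinylated peptide substrate by recombinant human Src. Phosphorylated product was quantified by time-resolved fluorometry using europium cryptate and XL665 conjugates, and IC50 was calculated against the compound-free control.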

[1] = biotinylated peptide phosphorylation

Structure (SMILES) | IC50 (human Yes1 enzyme) | IC50 (human Lck enzyme) | IC50 (human Src enzyme) | IC50 (human Yes1 enzyme; [1]) | IC50 (human Lck enzyme; [1]) | IC50 (human Src enzyme; [1])
Cc1cc(Oc2ccccc2F)ccc1-n1ncc(C(=O)c2cc3cc(F)c(NC4CCN(S(C)(=O)=O)CC4)cc3[nH]2)c1N [Example 5-1-135, [5-amino-1-[4-(2-fluorophenoxy)-2-methylphenyl]pyrazol-4-yl]-[5-fluoro-6-[(1-methylsulfonylpiperidin-4-yl)amino]-1H-indol-2-yl]methanone] | 0.84 nM | 5.3 nM | 12 nM |  |  | 
Cc1cc(Oc2ccccc2F)ccc1-n1ncc(C(=O)c2cc3cc(OC(F)F)c(N4CC(C)(C)NS4(=O)=O)cc3[nH]2)c1N [Example 5-1-340, [5-amino-1-[4-(2-fluorophenoxy)-2-methylphenyl]pyrazol-4-yl]-[5-(difluoromethoxy)-6-(4,4-dimethyl-1,1-dioxo-1,2,5-thiadiazolidin-2-yl)-1H-indol-2-yl]methanone] | 2.1 nM | 20 nM | 130 nM |  |  | 
CS(=O)(=O)Nc1cc2[nH]c(C(=O)c3cnn(-c4c(F)cc(Oc5cccc(F)c5F)cc4F)c3N)cc2cc1F [Example 5-1-030, N-[2-[5-amino-1-[4-(2,3-difluorophenoxy)-2,6-difluorophenyl]pyrazole-4-carbonyl]-5-fluoro-1H-indol-6-yl]methanesulfonamide] | 2.4 nM | 8.7 nM | 76 nM |  |  | 
Cc1cc(Oc2c(F)cccc2F)ncc1-n1ncc(C(=O)c2cc3cc(OC(F)F)c(Br)cc3[nH]2)c1N [Example 5-1-149, [5-amino-1-[6-(2,6-difluorophenoxy)-4-methylpyridin-3-yl]pyrazol-4-yl]-[6-bromo-5-(difluoromethoxy)-1H-indol-2-yl]methanone] | 5 nM | 43 nM | 57 nM |  |  | 
COc1cccc(S(=O)(=O)Nc2cc3[nH]c(C(=O)c4cnn(-c5ccc(Oc6ccccc6F)cc5C)c4N)cc3cc2OCC(F)F)c1 [Example 5-1-414, N-[2-[5-amino-1-[4-(2-fluorophenoxy)-2-methylphenyl]pyrazole-4-carbonyl]-5-(2,2-difluoroethoxy)-1H-indol-6-yl]-3-methoxybenzenesulfonamide] |  |  |  | 5.3 nM | 110 nM | 330 nM
Cc1cc(Oc2c(F)cccc2F)ncc1-n1ncc(C(=O)c2cc3cc(F)c(N4C(=O)N[C@@H](C(C)C)C4=O)cc3[nH]2)c1N [Example 5-1-431, (5S)-3-[2-[5-amino-1-[6-(2,6-difluorophenoxy)-4-methylpyridin-3-yl]pyrazole-4-carbonyl]-5-fluoro-1H-indol-6-yl]-5-propan-2-ylimidazolidine-2,4-dione] |  |  |  | 4.9 nM | 20 nM | 190 nM
COc1cc2cc(C(=O)c3cnn(-c4c(C)cc(Oc5ccccc5)cc4F)c3N)[nH]c2cc1NS(C)(=O)=O [Example 4-1-007, N-[2-[5-amino-1-(2-fluoro-6-methyl-4-phenoxyphenyl)pyrazole-4-carbonyl]-5-methoxy-1H-indol-6-yl]methanesulfonamide] |  |  |  | 1.1 nM | 7.5 nM | 61 nM
Cc1cc(Oc2ccccc2F)ncc1-n1ncc(C(=O)c2cc3cc(OCC(F)F)c(N4CCCC4=O)cc3[nH]2)c1N [Example 4-25-013, 1-{2-{5-amino-1-[6-(2-fluorophenoxy)-4-methylpyridin-3-yl]pyrazole-4-carbonyl}-5-(2,2-difluoroethoxy)-1H-indol-6-yl}pyrrolidin-2-one] |  |  |  | 1 nM | 4 nM | 16 nM
Cc1cc2cc(C(=O)c3cnn(-c4cnc(Oc5c(F)cccc5F)cc4C)c3N)[nH]c2cc1NS(=O)(=O)c1cccc(C#N)n1 [Example 5-1-536, N-[2-[5-amino-1-[6-(2,6-difluorophenoxy)-4-methylpyridin-3-yl]pyrazole-4-carbonyl]-5-methyl-1H-indol-6-yl]-6-cyanopyridine-2-sulfonamide] |  |  |  | 9.2 nM | 92 nM | 560 nM
Cc1cc(Oc2c(F)cccc2F)ncc1-n1ncc(C(=O)c2cc3cc(F)c(N(C4CCOCC4)S(C)(=O)=O)cc3[nH]2)c1N [Example 4-2-127, N-[2-[5-amino-1-[6-(2,6-difluorophenoxy)-4-methylpyridin-3-yl]pyrazole-4-carbonyl]-5-fluoro-1H-indol-6-yl]-N-(oxan-4-yl)methanesulfonamide] |  |  |  | 1.3 nM | 3.7 nM | 23 nM
Cc1cc(Oc2ccccc2F)ncc1-n1ncc(C(=O)c2cc3cc(N4CCOCC4)c(NS(=O)(=O)C4CC4)cc3[nH]2)c1N [Example 4-24-014, N-[2-[5-amino-1-[6-(2-fluorophenoxy)-4-methylpyridin-3-yl]pyrazole-4-carbonyl]-5-morpholin-4-yl-1H-indol-6-yl]cyclopropanesulfonamide] |  |  |  | 6.6 nM | 97 nM | 360 nM
Cc1cc(Oc2cccc(F)c2F)ncc1-n1ncc(C(=O)c2cc3cc(Cl)c(NS(C)(=O)=O)cc3[nH]2)c1N [Example 4-2-087, N-[2-[5-amino-1-[6-(2,3-difluorophenoxy)-4-methylpyridin-3-yl]pyrazole-4-carbonyl]-5-chloro-1H-indol-6-yl]methanesulfonamide] |  |  |  | 2.7 nM | 55 nM | 220 nM
Cc1cc(Oc2ccccc2F)ccc1-n1ncc(C(=O)c2cc3cc(N4CCOCC4)c(Br)cc3[nH]2)c1N [Example 5-1-147, [5-amino-1-[4-(2-fluorophenoxy)-2-methylphenyl]pyrazol-4-yl]-(6-bromo-5-morpholin-4-yl-1H-indol-2-yl)methanone] | 0.57 nM | 12 nM | 5.1 nM |  |  | 
Cc1cc(Oc2ccccc2F)ncc1-n1ncc(C(=O)c2cc3cc(F)c(NS(=O)(=O)c4c(F)cc(F)cc4F)cc3[nH]2)c1N [Example 5-1-568, N-[2-[5-amino-1-[6-(2-fluorophenoxy)-4-methylpyridin-3-yl]pyrazole-4-carbonyl]-5-fluoro-1H-indol-6-yl]-2,4,6-trifluorobenzenesulfonamide] |  |  |  | 17 nM | 750 nM | 1300 nM
Cc1cc(Oc2ccccc2F)ccc1-n1ncc(C(=O)c2cc3cc(OCC(F)F)c(NS(C)(=O)=O)cc3[nH]2)c1N [Example 4-24-021, N-[2-[5-amino-1-[4-(2-fluorophenoxy)-2-methylphenyl]pyrazole-4-carbonyl]-5-(2,2-difluoroethoxy)-1H-indol-6-yl]methanesulfonamide] |  |  |  | 1.7 nM | 9.7 nM | 22 nM
Cc1cc(Oc2ccccc2F)ccc1-n1ncc(C(=O)c2cc3cc(OC(F)F)c(C4CCN(S(C)(=O)=O)CC4)cc3[nH]2)c1N [Example 4-17-003, [5-amino-1-[4-(2-fluorophenoxy)-2-methylphenyl]pyrazol-4-yl]-[5-(difluoromethoxy)-6-(1-methylsulfonylpiperidin-4-yl)-1H-indol-2-yl]methanone] |  |  |  | 7.4 nM | 20 nM | 23 nM
Cc1cc(Oc2ccccc2F)ccc1-n1ncc(C(=O)c2cc3cc(F)c(NS(=O)(=O)c4cccnc4)cc3[nH]2)c1N [Example 5-1-489, N-[2-[5-amino-1-[4-(2-fluorophenoxy)-2-methylphenyl]pyrazole-4-carbonyl]-5-fluoro-1H-indol-6-yl]pyridine-3-sulfonamide] |  |  |  | 1.9 nM | 49 nM | 190 nM
Cc1cc(Oc2c(F)cccc2F)ncc1-n1ncc(C(=O)c2cc3cc(OC4CCN(C(C)C)CC4)c(N)cc3[nH]2)c1N [Example 5-1-183, [5-amino-1-[6-(2,6-difluorophenoxy)-4-methylpyridin-3-yl]pyrazol-4-yl]-[6-amino-5-(1-propan-2-ylpiperidin-4-yl)oxy-1H-indol-2-yl] methanone] | 0.44 nM | 2.8 nM | 4.9 nM |  |  | 
Cc1cc2cc(C(=O)c3cnn(-c4c(C)cc(Oc5cccc(F)c5F)cc4F)c3N)[nH]c2cc1NS(=O)(=O)N1CCOCC1 [Example 5-1-066, N-[2-[5-amino-1-[4-(2,3-difluorophenoxy)-2-fluoro-6-methylphenyl]pyrazole-4-carbonyl]-5-methyl-1H-indol-6-yl]morpholine-4-sulfonamide] | 2.7 nM | 77 nM | 210 nM |  |  | 
COc1cc2cc(C(=O)c3cnn(-c4cnc(Oc5ccccc5Cl)cc4C)c3N)[nH]c2cc1NS(C)(=O)=O [Example 4-1-010, N-[2-[5-amino-1-[6-(2-chlorophenoxy)-4-methylpyridin-3-yl]pyrazole-4-carbonyl]-5-methoxy-1H-indol-6-yl]methanesulfonamide] |  |  |  | 1.1 nM | 25 nM | 46 nM
Cc1cc(Oc2cccc(F)c2F)ccc1-n1ncc(C(=O)c2cc3cc(NS(C)(=O)=O)c(F)cc3[nH]2)c1N [Example 4-2-098, N-[2-[5-amino-1-[4-(2,3-difluorophenoxy)-2-methylphenyl]pyrazole-4-carbonyl]-6-fluoro-1H-indol-5-yl]methanesulfonamide] |  |  |  | 0.39 nM | 2.5 nM | 15 nM
CC(C)N1CCC(c2cc3cc(C(=O)c4cnn(-c5ccc(Oc6cccc(F)c6F)cc5)c4N)[nH]c3cc2F)CC1 [Example 4-2-004, [5-amino-1-[4-(2,3-difluorophenoxy)phenyl]pyrazol-4-yl]-[6-fluoro-5-(1-propan-2-ylpiperidin-4-yl)-1H-indol-2-yl]methanone] |  |  |  | 0.93 nM | 2.3 nM | 7.5 nM
Cc1cc2cc(C(=O)c3cnn(-c4ccc(Oc5ccccc5)cc4C)c3N)[nH]c2cc1NS(C)(=O)=O [Example 5-1-108, N-[2-[5-amino-1-(2-methyl-4-phenoxyphenyl)pyrazole-4-carbonyl]-5-methyl-1H-indol-6-yl] methanesulfonamide] | 0.57 nM | 1.7 nM | 21 nM |  |  | 
